Test results: US10570149B2, “Tricyclic heterocylic derivatives” (MERCK PATENT GMBH, priority 2016, dated 2020)
pIC50: −log10 of the molar value.

target: T1, ATR/ATRIP (Homo sapiens, UniProt Q13535); assay: ATR/ATRIP kinase assay (TR-FRET, p53 phosphorylation); format: biochemical; settings: Table 1, class symbols; read-out: ATR-ATRIP IC50
T1 construct: human ATR, full length, GenBank ID: NM_001184.3; p53: Sf21 insect cells
Protocol: ATR/ATRIP Kinase Assay—Measurement of ATR/ATRIP Inhibition
The IC50 value was determined by an ATR/ATRIP enzymatic assay. The assay comprises two steps: the enzymatic reaction and the detection step. First, a mixture of ATR/ATRIP protein (Ataxia Telangiectasia and Rad3-related protein/ATR interacting protein), the compound in question at different concentrations, p53 as substrate protein and adenosine triphosphate (ATP) are incubated in assay buffer. ATR phosphorylates p53 at Ser15 and other residues. The amount of phosphorylated p53 is then detected using specific antibodies and the TR-FRET assay technology.
In detail: The ATR/ATRIP enzymatic assay is performed as a TR-FRET-(HTRF™, Cisbio Bioassays) based 384-well assay. In a first step, purified human recombinant ATR/ATRIP (human ATR, full length, GenBank ID: NM_001184.3, and human ATRIP, full length, GenBank ID AF451323.1, co-expressed in a mammalian cell line) is incubated in assay buffer for 15 minutes at 22° C. with test compound at different concentrations or without test compound (as a negative control). The assay buffer contains 25 mM HEPES pH 8.0, 10 mM Mg(CH3COO)2, 1 mM MnCl2, 0.1% BSA, 0.01% Brij® 35, and 5 mM dithiothreitol (DTT). […] Then, in a second step, purified human recombinant cmyc-tagged p53 (human p53, full length, GenBank ID: BC003596, expressed in Sf21 insect cells) and ATP are added and the reaction mixture is incubated for 25-35 minutes, typically 25 minutes, at 22° C. The pharmacologically relevant assay volume is 5 μl. The final concentrations in the assay during incubation of the reaction mixture are 0.3-0.5 nM, typically 0.3 nM, ATR/ATRIP, 50 nM p53, and 0.5 μM ATP. The enzymatic reaction is stopped by the addition of EDTA. […] Following signal development for 2 h the plates are analyzed in an EnVision (PerkinElmer) microplate reader using the TRF mode with laser excitation. […] Data are processed employing the Genedata Screener software. In particular, IC50 values are determined in the usual manner by fitting a dose-response curve to the data points using nonlinear regression analysis.

T1 sequence (Q13535 whole entry): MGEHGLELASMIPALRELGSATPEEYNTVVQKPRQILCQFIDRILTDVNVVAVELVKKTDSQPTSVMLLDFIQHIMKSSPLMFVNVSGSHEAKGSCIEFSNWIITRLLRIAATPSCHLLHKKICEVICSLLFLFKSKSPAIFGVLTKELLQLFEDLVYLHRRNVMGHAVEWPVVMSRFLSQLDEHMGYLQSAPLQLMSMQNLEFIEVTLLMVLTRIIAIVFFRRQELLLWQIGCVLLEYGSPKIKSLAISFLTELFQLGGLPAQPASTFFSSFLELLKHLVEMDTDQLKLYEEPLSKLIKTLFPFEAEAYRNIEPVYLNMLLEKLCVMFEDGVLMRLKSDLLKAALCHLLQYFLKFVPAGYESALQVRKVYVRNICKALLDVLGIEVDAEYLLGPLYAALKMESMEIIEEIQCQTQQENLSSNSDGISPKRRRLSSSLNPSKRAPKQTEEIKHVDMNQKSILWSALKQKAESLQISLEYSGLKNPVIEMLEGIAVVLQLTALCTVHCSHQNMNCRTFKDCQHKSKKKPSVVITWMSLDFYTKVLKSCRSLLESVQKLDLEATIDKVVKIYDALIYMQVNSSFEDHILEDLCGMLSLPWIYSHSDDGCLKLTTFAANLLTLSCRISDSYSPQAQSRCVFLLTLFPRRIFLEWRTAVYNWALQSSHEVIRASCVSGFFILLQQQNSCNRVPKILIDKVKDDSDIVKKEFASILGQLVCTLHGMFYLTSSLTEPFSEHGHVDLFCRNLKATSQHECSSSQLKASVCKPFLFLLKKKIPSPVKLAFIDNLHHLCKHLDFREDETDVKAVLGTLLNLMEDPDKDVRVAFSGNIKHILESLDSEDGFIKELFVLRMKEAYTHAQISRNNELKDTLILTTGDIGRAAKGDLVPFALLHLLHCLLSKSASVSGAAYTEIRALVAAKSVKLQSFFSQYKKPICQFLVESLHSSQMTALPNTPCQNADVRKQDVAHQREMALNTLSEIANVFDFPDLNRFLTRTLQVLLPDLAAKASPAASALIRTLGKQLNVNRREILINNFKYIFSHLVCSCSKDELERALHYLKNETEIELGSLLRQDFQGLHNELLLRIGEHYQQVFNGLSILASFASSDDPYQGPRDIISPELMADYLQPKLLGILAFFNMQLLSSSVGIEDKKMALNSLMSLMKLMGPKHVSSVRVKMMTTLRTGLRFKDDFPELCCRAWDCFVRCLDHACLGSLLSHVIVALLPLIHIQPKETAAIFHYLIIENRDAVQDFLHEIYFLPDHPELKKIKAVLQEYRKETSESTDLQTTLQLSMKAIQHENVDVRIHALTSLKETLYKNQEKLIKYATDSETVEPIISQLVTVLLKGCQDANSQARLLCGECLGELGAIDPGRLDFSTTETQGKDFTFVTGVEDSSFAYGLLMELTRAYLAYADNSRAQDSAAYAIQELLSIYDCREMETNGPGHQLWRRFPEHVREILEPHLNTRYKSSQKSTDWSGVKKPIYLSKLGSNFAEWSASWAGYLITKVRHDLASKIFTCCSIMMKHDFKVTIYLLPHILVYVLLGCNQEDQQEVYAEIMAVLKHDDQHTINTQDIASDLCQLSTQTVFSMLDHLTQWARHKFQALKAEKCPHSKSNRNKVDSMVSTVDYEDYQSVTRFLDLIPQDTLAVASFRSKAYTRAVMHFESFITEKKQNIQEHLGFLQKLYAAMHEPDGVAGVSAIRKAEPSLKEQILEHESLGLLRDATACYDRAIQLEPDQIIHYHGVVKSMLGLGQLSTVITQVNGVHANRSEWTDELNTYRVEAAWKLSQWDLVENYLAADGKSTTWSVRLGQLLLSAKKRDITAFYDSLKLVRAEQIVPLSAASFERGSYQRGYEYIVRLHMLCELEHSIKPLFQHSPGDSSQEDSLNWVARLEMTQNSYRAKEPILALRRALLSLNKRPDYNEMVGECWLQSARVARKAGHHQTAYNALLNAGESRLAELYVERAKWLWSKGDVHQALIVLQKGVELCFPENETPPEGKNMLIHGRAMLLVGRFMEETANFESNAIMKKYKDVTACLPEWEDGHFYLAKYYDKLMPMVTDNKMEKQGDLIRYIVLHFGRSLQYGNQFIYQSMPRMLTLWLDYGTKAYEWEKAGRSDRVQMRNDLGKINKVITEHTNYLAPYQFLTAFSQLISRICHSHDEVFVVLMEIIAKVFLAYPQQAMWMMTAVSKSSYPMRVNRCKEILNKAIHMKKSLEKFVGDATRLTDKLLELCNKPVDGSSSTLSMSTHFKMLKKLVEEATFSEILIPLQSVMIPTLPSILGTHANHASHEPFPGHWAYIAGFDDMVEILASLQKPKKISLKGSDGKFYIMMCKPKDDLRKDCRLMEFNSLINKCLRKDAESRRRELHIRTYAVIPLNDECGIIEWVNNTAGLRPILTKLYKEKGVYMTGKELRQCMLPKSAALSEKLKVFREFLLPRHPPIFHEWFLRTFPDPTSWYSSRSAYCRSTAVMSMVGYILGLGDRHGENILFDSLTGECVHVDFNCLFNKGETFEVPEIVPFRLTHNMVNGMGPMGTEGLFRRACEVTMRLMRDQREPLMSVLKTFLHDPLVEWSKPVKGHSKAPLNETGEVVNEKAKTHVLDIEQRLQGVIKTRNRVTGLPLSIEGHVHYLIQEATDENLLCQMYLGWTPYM
T1 sequence (Q8WXE1 whole entry partner): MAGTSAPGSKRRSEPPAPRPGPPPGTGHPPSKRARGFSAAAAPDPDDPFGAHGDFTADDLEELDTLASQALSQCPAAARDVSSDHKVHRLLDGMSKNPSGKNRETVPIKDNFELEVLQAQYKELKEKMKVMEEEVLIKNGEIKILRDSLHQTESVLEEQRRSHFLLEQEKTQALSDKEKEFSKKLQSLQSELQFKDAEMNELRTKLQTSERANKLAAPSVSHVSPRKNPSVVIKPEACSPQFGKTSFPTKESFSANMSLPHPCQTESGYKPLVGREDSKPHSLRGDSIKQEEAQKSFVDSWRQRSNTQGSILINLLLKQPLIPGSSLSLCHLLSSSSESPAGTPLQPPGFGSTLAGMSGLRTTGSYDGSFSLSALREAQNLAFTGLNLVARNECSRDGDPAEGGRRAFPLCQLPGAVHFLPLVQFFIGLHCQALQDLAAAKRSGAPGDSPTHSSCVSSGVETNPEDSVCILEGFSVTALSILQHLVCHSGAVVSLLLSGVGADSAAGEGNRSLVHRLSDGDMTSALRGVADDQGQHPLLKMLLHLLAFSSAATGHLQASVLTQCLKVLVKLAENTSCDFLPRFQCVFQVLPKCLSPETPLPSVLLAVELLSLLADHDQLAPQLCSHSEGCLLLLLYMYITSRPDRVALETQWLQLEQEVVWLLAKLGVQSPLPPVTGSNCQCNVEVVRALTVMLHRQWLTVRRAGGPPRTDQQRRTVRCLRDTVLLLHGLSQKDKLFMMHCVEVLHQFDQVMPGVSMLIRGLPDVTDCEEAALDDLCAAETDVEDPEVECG

Row | pIC50 | Compound
1 | 7.00 to 8.00 | C[C@@H]1COC[C@H]2COc3c(Cn4nncc4C(=O)O)nc(-c4ccnc5[nH]ccc45)nc3N21 [A2, 3-[(5R,8aS)-5-Methyl-3-(1H-pyrrolo[2,3-b]pyridin-4-yl)-5,6,8a,9-tetrahydro-8H-7,10-dioxa-2,4,4b-triaza-phenanthren-1-ylmethyl]-3H[1,2,3]triazole-4-carboxylic Acid]
2 | 6.30 to 7.00 | CNc1nc2ccccc2n1-c1nc(Cn2nncc2C(=O)O)c2c(n1)N1[C@@H](COC[C@H]1C)CO2 [A3, 3-[(5R,8aS)-5-Methyl-3-(2-methylamino-benzoimidazol-1-yl)-5,6,8a,9-tetrahydro-8H-7,10-dioxa-2,4,4b-triaza-phenanthren-1-ylmethyl]-3H[1,2,3]triazole-4-carboxylic Acid]
3 | 8.00 to 9.00 | C[C@@H]1COC[C@H]2COc3c(Cn4cc(C(=O)O)nn4)nc(-c4ccnc5[nH]ccc45)nc3N21 [A4, 1-[(5R,8aS)-5-Methyl-3-(1H-pyrrolo[2,3-b]pyridin-4-yl)-5,6,8a,9-tetrahydro-8H-7,10-dioxa-2,4,4b-triaza-phenanthren-1-ylmethyl]-1H-[1,2,3]triazole-4-carboxylic Acid]
4 | 7.00 to 8.00 | CNCc1c[nH]c2ncc(F)c(-c3nc4c(c(C(C)(C)O)n3)OC[C@@H]3COC[C@@H](C)N43)c12 [A5, 2-[(5R,8aS)-3-(5-Fluoro-3-methylaminomethyl-1H-pyrrolo[2,3-b]pyridin-4-yl)-5-methyl-5,6,8a,9-tetrahydro-8H-7,10-dioxa-2,4,4b-triaza-phenanthren-1-yl]-propan-2-ol]
5 | 7.00 to 8.00 | C[C@@H]1COC[C@H]2COc3c(nc(N(C)c4nc5ccccc5[nH]4)nc3C(C)(C)O)N21 [A12, 2-{(5R,8aS)-3-[(1H-Benzimidazol-2-yl)-methyl-amino]-5-methyl-5,6,8a,9-tetrahydro-8H-7,10-dioxa-2,4,4b-triaza-phenanthren-1-yl}-propan-2-ol]
6 | 7.00 to 8.00 | CNc1nc2ccccc2n1-c1nc2c(c(C(C)(C)S(C)(=O)=O)n1)OC[C@H]1COC[C@H](C)N21 [A14, {1-[(5S,8aR)-1-(1-Methanesulfonyl-1-methyl-ethyl)-5-methyl-5,6,8a,9-tetrahydro-8H-7,10-dioxa-2,4,4b-triaza-phenanthren-3-yl]-1H-benzimidazol-2-yl}-methyl-amine]
7 | 7.00 to 8.00 | C[C@@H]1COC[C@H]2COc3c(nc(N(C)c4nc5ccccc5[nH]4)nc3C(C)(C)S(C)(=O)=O)N21 [A16, (1H-Benzimidazol-2-yl)-[(5R,8aS)-1-(1-methanesulfonyl-1-methyl-ethyl)-5-methyl-5,6,8a,9-tetrahydro-8H-7,10-dioxa-2,4,4b-triaza-phenanthren-3-yl]-methyl-amine]
8 | 6.30 to 7.00 | CNc1nc2ccccc2n1-c1nc(Cn2cc(C(=O)O)nn2)c2c(n1)N1[C@@H](COC[C@H]1C)CO2 [A17, 1-[(5R,8aS)-5-Methyl-3-(2-methylamino-benzimidazol-1-yl)-5,6,8a,9-tetrahydro-8H-7,10-dioxa-2,4,4b-triaza-phenanthren-1-ylmethyl]-1H[1,2,3]triazole-4-carboxylic Acid]
9 | 8.00 to 9.00 | COC(=O)c1cn(Cc2nc(-c3ccnc4[nH]ccc34)nc3c2OC[C@@H]2COC[C@@H](C)N32)nn1 [A18, 1-[(5R,8aS)-5-Methyl-3-(1H-pyrrolo[2,3-b]pyridin-4-yl)-5,6,8a,9-tetrahydro-8H-7,10-dioxa-2,4,4b-triaza-phenanthren-1-ylmethyl]-1H-[1,2,3]triazole-4-carboxylic Acid Methyl Ester]
10 | 6.30 to 7.00 | COC(=O)c1cn(Cc2nc(-c3ccnc4c3ccn4C)nc3c2OC[C@@H]2COC[C@@H](C)N32)nn1 [A19, 1-[(5R,8aS)-5-Methyl-3-(1-methyl-1H-pyrrolo[2,3-b]pyridin-4-yl)-5,6,8a,9-tetrahydro-8H-7,10-dioxa-2,4,4b-triaza-phenanthren-1-ylmethyl]-1H[1,2,3]triazole-4-carboxylic Acid Methyl Ester]
11 | 7.00 to 8.00 | CNc1nc2ccccc2n1-c1nc(Cn2cc(C(=O)OC)nn2)c2c(n1)N1[C@@H](COC[C@H]1C)CO2 [A22, 1-[(5R,8aS)-5-Methyl-3-(2-methylamino-benzoimidazol-1-yl)-5,6,8a,9-tetrahydro-8H-7,10-dioxa-2,4,4b-triaza-phenanthren-1-ylmethyl]-1H[1,2,3]triazole-4-carboxylic Acid Methyl Ester]
12 | 4.52 to 6.30 | C[C@@H]1COC[C@H]2COc3c(nc(-c4c(F)ncc5c4ccn5C)nc3C(C)(C)S(C)(=O)=O)N21 [A38, (5R,8aS)-3-(5-fluoro-1-methyl-1H-pyrrolo[2,3-c]pyridin-4-yl)-1-(1-methanesulfonyl-1-methyl-ethyl)-5-methyl-5,6,8a,9-tetrahydro-8H-7,10-dioxa-2,4,4b-triaza-phenanthrene]
13 | 8.00 to 9.00 | C[C@@H]1COC[C@H]2COc3c(nc(-c4cncc(CO)c4)nc3C(C)(C)S(C)(=O)=O)N21 [A40, {5-[(5R,8aS)-1-(1-methanesulfonyl-1-methyl-ethyl)-5-methyl-5,6,8a,9-tetrahydro-8H-7,10-dioxa-2,4,4b-triaza-phenanthren-3-yl]-pyridin-3-yl}-methanol]
14 | > 9.00 | C[C@@H]1COC[C@H]2COc3c(nc(-c4cccc(CO)c4)nc3C(C)(C)S(C)(=O)=O)N21 [A41, {3-[(5R,8aS)-1-(1-methanesulfonyl-1-methyl-ethyl)-5-methyl-5,6,8a,9-tetrahydro-8H-7,10-dioxa-2,4,4b-triaza-phenanthren-3-yl]-phenyl}-methanol]
15 | 6.30 to 7.00 | CNc1ncn(-c2nc3c(c(C(C)(C)S(C)(=O)=O)n2)OC[C@@H]2COC[C@@H](C)N32)n1 [A43]
16 | 7.00 to 8.00 | C[C@@H]1COC[C@H]2COc3c(nc(-c4ccc(CCN)cc4)nc3C(C)(C)S(C)(=O)=O)N21 [A45, 2-{4-[(4bS,6R)-1-(1-methanesulfonyl-1-methyl-ethyl)-5-methyl-5,6,8a,9-tetrahydro-8H-7,10-dioxa-2,4,4b-triaza-phenanthren-3-yl]-phenyl}-ethylamine]
17 | 4.52 to 6.30 | C[C@@H]1COC[C@H]2COc3c(nc(C(=O)Nc4ccn[nH]4)nc3C(C)(C)S(C)(=O)=O)N21 [A47, (4bS,6R)-1-(1-methanesulfonyl-1-methyl-ethyl)-5-methyl-5,6,8a,9-tetrahydro-8H-7,10-dioxa-2,4,4b-triaza-phenanthrene-3-carboxylic Acid (2H-pyrazol-3-yl)-amide]
18 | 4.52 to 6.30 | C[C@@H]1COC[C@H]2COc3c(nc(C(=O)N4CC[C@H](O)C4)nc3C(C)(C)S(C)(=O)=O)N21 [A48, ((S)-3-hydroxy-pyrrolidin-1-yl)-[(4bS,6R)-1-(1-methanesulfonyl-1-methyl-ethyl)-5-methyl-5,6,8a,9-tetrahydro-8H-7,10-dioxa-2,4,4b-triaza-phenanthren-3-yl]-methanone]
19 | 4.52 to 6.30 | C[C@@H]1COC[C@H]2COc3c(nc(C(=O)N4CC[C@@H](O)C4)nc3C(C)(C)S(C)(=O)=O)N21 [A49, ((R)-3-hydroxy-pyrrolidin-1-yl)-[(4bS,6R)-1-(1-methanesulfonyl-1-methyl-ethyl)-5-methyl-5,6,8a,9-tetrahydro-8H-7,10-dioxa-2,4,4b-triaza-phenanthren-3-yl]-methanone]
20 | 4.52 to 6.30 | C[C@@H]1COC[C@H]2COc3c(nc(C(=O)N4CC[C@@H](N)C4)nc3C(C)(C)S(C)(=O)=O)N21 [A51, ((R)-3-amino-pyrrolidin-1-yl)-[(4bS,6R)-1-(1-methanesulfonyl-1-methyl-ethyl)-5-methyl-5,6,8a,9-tetrahydro-8H-7,10-dioxa-2,4,4b-triaza-phenanthren-3-yl]-methanone]
21 | 4.52 to 6.30 | C[C@@H]1COC[C@H]2COc3c(nc(C(=O)NC[C@@H](C)O)nc3C(C)(C)S(C)(=O)=O)N21 [A53, (4bS,6R)-1-(1-methanesulfonyl-1-methyl-ethyl)-5-methyl-5,6,8a,9-tetrahydro-8H-7,10-dioxa-2,4,4b-triaza-phenanthrene-3-carboxylic Acid ((R)-2-hydroxy-propyl)-amide]
22 | 4.52 to 6.30 | C[C@H](O)CNC(=O)c1nc2c(c(C(C)(C)S(C)(=O)=O)n1)OC[C@@H]1COC[C@@H](C)N21 [A54, (4bS,6R)-1-(1-methanesulfonyl-1-methyl-ethyl)-5-methyl-5,6,8a,9-tetrahydro-8H-7,10-dioxa-2,4,4b-triaza-phenanthrene-3-carboxylic Acid ((S)-2-hydroxy-propyl)-amide]
23 | 7.00 to 8.00 | C[C@@H]1COC[C@H]2COc3c(nc(C(=O)Nc4nnc[nH]4)nc3C(C)(C)S(C)(=O)=O)N21 [A55, (4bS,6R)-1-(1-methanesulfonyl-1-methyl-ethyl)-5-methyl-5,6,8a,9-tetrahydro-8H-7,10-dioxa-2,4,4b-triaza-phenanthrene-3-carboxylic Acid (4H-[1,2,4]triazol-3-yl)-amide]
